What follows are compounds tested against T1, Bcl-2-like protein 10 [11-204] (Homo sapiens, UniProt Q9HD36) (assay: Bcl-B Bim peptide interaction hit potency – biochemical, dose response, multiplexed HTS hits, confirmation (AID 2077)). Conditions: not given.
T1 construct: 11-204
T1 sequence (Q9HD36 whole entry): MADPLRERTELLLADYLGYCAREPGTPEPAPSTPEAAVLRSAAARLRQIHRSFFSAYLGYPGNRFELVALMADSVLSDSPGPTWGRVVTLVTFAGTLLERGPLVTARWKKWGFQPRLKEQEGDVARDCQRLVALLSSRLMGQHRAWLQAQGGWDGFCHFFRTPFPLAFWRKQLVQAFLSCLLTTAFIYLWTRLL
Work on `CCN(CC)c1ccc(NC(=O)c2ccccc2Br)cc1S(=O)(=O)Nc1ccccc1OC` yielded an EC50 of 8.66 µM.
For `COc1ccc(N2C(=O)C(Cl)=C(Oc3cccc(OC)c3)C2=O)cc1` [3-chloro-4-(3-methoxyphenoxy)-1-(4-methoxyphenyl)-1H-pyrrole-2,5-dione], the EC50 was 0.61 µM.
`O=C1C(=Cc2ccco2)NC(=S)N1c1ccccc1` [(5E)-5-(furan-2-ylmethylidene)-3-phenyl-2-sulfanylideneimidazolidin-4-one] showed an EC50 of 2.9 µM.
For `O=c1c2c(n3nnnc3n1Cc1ccccc1)-c1ccccc1CC21CCCC1` [MLS000030575], the EC50 was 3.57 µM.
`O=C1NC(=O)C2(Cc3c(nc4ccccn4c3=O)N3CCCCCC32)C(=O)N1Cc1ccccc1` (centres undefined) [MLS000083668] showed an EC50 of 6.4 µM.
`CC(=O)Nc1ccc(-n2cc(-c3ccccc3)[nH]c2=S)cc1` [MLS001001946] gave an EC50 of 0.92 µM.
`O=C(Nc1nnc(COc2ccc(Cl)cc2)s1)c1ccco1` [N-[5-[(4-chloranylphenoxy)methyl]-1,3,4-thiadiazol-2-yl]furan-2-carboxamide] showed an EC50 of 1.46 µM.
Work on `S=c1[nH]cc(-c2ccccc2)n1-c1ccccc1` [SMR000196363] yielded an EC50 of 0.32 µM.
With `Cc1ccc(C=NNC(=O)CSc2nnc(-c3ccc(Cl)cc3)n2-c2ccccc2)o1` [SMR000218122] the EC50 was 16.4 µM.

Same assay, conditions: inactive by the depositor's call
`O=c1[nH]c(O)c(Cc2ccc(-c3cc(Cl)ccc3[N+](=O)[O-])o2)c(=O)[nH]1` gave an EC50 of 36.5 µM.
For `O=C(NCc1ccccc1)c1ccc2nc(-c3ccco3)c(-c3ccco3)nc2c1` [2,3-bis(furan-2-yl)-N-(phenylmethyl)quinoxaline-6-carboxamide], the EC50 was 31.6 µM.
`Cc1cc(-c2cc(-c3ccc(Cl)cc3)nc(N)c2C#N)co1` [2-azanyl-6-(4-chlorophenyl)-4-(5-methylfuran-3-yl)pyridine-3-carbonitrile] was tested, and the EC50 was 15.2 µM.
`Clc1nc(NCc2cccnc2)nc(N2CCOCC2)n1` [MLS000121154] was tested, and the EC50 was 13.5 µM.
With `COc1ccccc1-n1c(-c2ccccc2)c[nH]c1=S` [MLS001007615] the EC50 was 24.4 µM.

Source: BindingDB's records for doi:10.7270/Q2NG4P21 (Nmmlsc, 2009)
